According to patent US11597724B2, “Herbicidally active 3-phenylisoxazoline-5-carboxamides of tetrahydro and dihydrofuran carboxylic acids and esters” (Bayer Aktiengesellschaft, priority 2017, dated 2023):

Tests used:
Type in all cases: in vivo
Echinochloa crus-galli = assay: Post-emergence herbicidal activity against ECHCG; conditions: Echinochloa crus-galli, 504 h, dosage 320 g/ha, rated about 3 weeks after treatment
Summary of the method: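 Greenhouse pot plants sprayed post-emergence at one-leaf stage (2-3 weeks after sowing) with WP or EC formulations, 0.5% additive, 600 l/ha water. Visual rating about 3 weeks later versus untreated controls: 100% = plants dead, 0% = like control.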

Lolium rigidum = assay: Post-emergence herbicidal activity against LOLRI; conditions: Lolium rigidum, 504 h, dosage 320 g/ha, rated about 3 weeks after treatment
Summary of the method: (§1)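 Greenhouse-grown plants sprayed post-emergence at the one-leaf stage, 2 to 3 weeks after sowing, with WP or EC formulations plus 0.5% additive at 600 l/ha water. Activity rated visually after about 3 weeks versus untreated controls (100% = plants dead, 0% = like control).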

Setaria viridis = assay: Post-emergence herbicidal activity against SETVI; conditions: Setaria viridis, 504 h, dosage 320 g/ha, rated about 3 weeks after treatment
Summary of the method: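 Greenhouse weeds in sandy loam were sprayed at the one-leaf stage, 2–3 weeks after sowing, with WP or EC formulations plus 0.5% additive at 600 l/ha water. About 3 weeks later, damage was rated visually against untreated controls, where 100% means plants dead and 0% means like control.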

Pharbitis purpurea = assay: Post-emergence herbicidal activity against PHBPU; conditions: Ipomoea purpurea, 504 h, dosage 320 g/ha, rated about 3 weeks after treatment
Summary of the method: as §1

Stellaria media = assay: Post-emergence herbicidal activity against STEME; conditions: Stellaria media, 504 h, dosage 320 g/ha, rated about 3 weeks after treatment
Summary of the method: (§2)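 Greenhouse plants treated at one-leaf stage, 2–3 weeks after sowing, by spraying WP or EC formulations with 0.5% additive at 600 l/ha water. Visual rating about 3 weeks later versus untreated controls (100% = plants dead, 0% = like controls).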

Veronica persica = assay: Post-emergence herbicidal activity against VERPE; conditions: Veronica persica, 504 h, dosage 320 g/ha
Summary of the method: as §2

[1] = Post-emergence treatment, summary over harmful plants; conditions: 504 h, application rate of 0.32 kg of active substance or less per hectare, read-out: herbicidal action, post-emergence treatment (very good herbicidal activity)
Experimental: 2. Post-Emergence Herbicidal Action and Crop Plant Compatibility
Seeds of monocotyledonous and dicotyledonous weeds and crop plants are placed in sandy loam in plastic or wood-fiber pots, covered with soil and cultivated in a greenhouse under controlled growth conditions. 2 to 3 weeks after sowing, the test plants are treated at the one-leaf stage. The compounds of the invention, formulated in the form of wettable powders (WP) or as emulsion concentrates (EC), are then sprayed onto the green parts of the plants as aqueous suspension or emulsion with addition of 0.5% additive at a water application rate of 600 l/ha (converted). After the test plants had been kept in the greenhouse under optimum growth conditions for about 3 weeks, the activity of the preparations is rated visually in comparison to untreated controls. For example, 100% activity=the plants have died, 0% activity=like control plants.
As shown by the results, compounds according to the invention such as, for example, the compounds No. I-35 and other compounds from the tables (for example I-28, I-38, I-01, I-19, I-36, I-29, I-32, I-11, I-12, I-37, I-06, I-09, I-33, I-34, I-13, I-04, I-26, I-21, I-30, I-05, I-03, I-20, I-27, I-14, I-10, I-23, I-07, I-25, I-02, I-08, I-24, I-41, I-42, I-43, I-44, I-46, I-49, I-54, I-55, I-56) have, when used for post-emergence treatment, very good herbicidal activity (80% to 100% herbicidal action) against harmful plants such as Abutilon theophrasti, Alopecurus myosuroides, Amaranthus retroflexus, Avena fatua, Echinochloa crus-galli, Hordeum murinum, Lolium rigidum, Pharbitis purpurea, Polygonum convolvulus, Setaria viridis, Stellaria media, Veronica persica and Viola tricolor at an application rate of 0.32 kg of active substance or less per hectare.

Avena fatua = assay: Pre-emergence herbicidal activity against AVEFA; conditions: Avena fatua, 504 h, dosage 80 g/ha, read-out: Pre-emergence herbicidal activity against AVEVA in % (AVEFA)
Text: 1. Pre-Emergence Herbicidal Action and Crop Plant Compatibility Seeds of monocotyledonous and dicotyledonous weed plants and crop plants are placed in plastic or wood fiber pots and covered with soil. The compounds of the invention, formulated in the form of wettable powders (WP) or as emulsion concentrates (EC), are then applied onto the surface of the covering soil as aqueous suspension or emulsion with addition of 0.5% additive at a water application rate of 600 l/ha (converted). After the treatment, the pots are placed in a greenhouse and kept under good growth conditions for the trial plants. After about 3 weeks, the effect of the preparations is scored visually in comparison with untreated controls as percentages. For example, 100% activity=the plants have died, 0% activity=like control plants. AMARE: Amaranthus retroflexus AVEFA: Avena fatua

Structure (SMILES) | pest or weed control at 320 g/ha (Echinochloa crus-galli) [%] | pest or weed control at 320 g/ha (Lolium rigidum) [%] | pest or weed control at 320 g/ha (Setaria viridis) [%] | pest or weed control at 320 g/ha (Pharbitis purpurea) [%] | pest or weed control at 320 g/ha (Stellaria media) [%] | pest or weed control at 320 g/ha (Veronica persica) [%] | pest or weed control at 320 g/ha [1] [%] | pest or weed control at 80 g/ha (Avena fatua) [%]
COC(=O)[C@H]1C[C@H](NC(=O)[C@@]2(C)CC(c3cc(F)cc(F)c3)=NO2)CO1 (mixture of isomers) [I-55, methyl trans-4-[[(5R)-3-(3,5-difluorophenyl)-5-methyl-4H-isoxazole-5-carbonyl]amino]tetrahydrofuran-2-carboxylate] | 90 | 90 | 90 | 90 | 90 | 90 | 80 to 100 | –
C=C[C@]1(C(=O)N[C@@H]2CO[C@@H](C(=O)OC)C2)CC(c2cc(F)cc(F)c2)=NO1 (mixture of isomers) [I-56, methyl trans-4-[[(5S)-3-(3,5-difluorophenyl)-5-vinyl-4H-isoxazole-5-carbonyl]amino]tetrahydrofuran-2-carboxylate] | 90 | 90 | 90 | 90 | 90 | 90 | 80 to 100 | –
CC(C)OC(=O)[C@H]1C[C@@H](NC(=O)C2(C)CC(c3cccc(F)c3)=NO2)CO1 (mixture of isomers) [I-32, isopropyl cis-4-[[(5RS)-3-(3-fluorophenyl)-5-methyl-4H-isoxazole-5-carbonyl]amino]tetrahydrofuran-2-carboxylate] | 90 | 100 | 90 | 90 | 90 | 80 | 80 to 100 | –
CC(C)(C)OC(=O)[C@H]1C[C@@H](NC(=O)C2(C)CC(c3cccc(F)c3)=NO2)CO1 (mixture of isomers) [I-33, tert-butyl cis-4-[[(5RS)-3-(3-fluorophenyl)-5-methyl-4H-isoxazole-5-carbonyl]amino]tetrahydrofuran-2-carboxylate] | 80 | 100 | 90 | 90 | 90 | 80 | 80 to 100 | –
C=CC1(C(=O)N[C@H]2CO[C@@H](C(=O)OC)C2)CC(c2cc(Cl)cc(Cl)c2)=NO1 (relative stereo) [I-03, methyl cis-4-[[3-(3,5-dichlorophenyl)-5-vinyl-4H-isoxazole-5-carbonyl]amino]tetrahydrofuran-2-carboxylate] | 80 | – | 80 | 90 | 90 | 80 | 80 to 100 | –
COC(=O)[C@H]1C[C@@H](NC(=O)C2(C)CC(c3cc(C)cc(Br)c3)=NO2)CO1 (relative stereo) [I-04, methyl cis-4-[[3-(3-bromo-5-methylphenyl)-5-methyl-4H-isoxazole-5-carbonyl]amino]tetrahydrofuran-2-carboxylate] | 90 | – | 80 | 90 | 90 | 80 | 80 to 100 | –
COC(=O)[C@H]1C[C@@H](NC(=O)C2(OC)CC(c3cc(F)cc(F)c3)=NO2)CO1 (relative stereo) [I-05, methyl cis-4-[[3-(3,5-difluorophenyl)-5-methoxy-4H-isoxazole-5-carbonyl]amino]tetrahydrofuran-2-carboxylate] | 90 | – | 90 | 90 | 90 | 80 | 80 to 100 | –
C=CC1(C(=O)N[C@H]2CO[C@@H](C(=O)OC)C2)CC(c2cccc(F)c2)=NO1 (relative stereo) [I-07, methyl cis-4-[[3-(3-fluorophenyl)-5-vinyl-4H-isoxazole-5-carbonyl]amino]tetrahydrofuran-2-carboxylate] | 80 | – | 80 | 90 | 90 | 80 | 80 to 100 | –
COC(=O)[C@H]1C[C@@H](NC(=O)C2(OC)CC(c3cc(C)cc(Br)c3)=NO2)CO1 (relative stereo) [I-08, methyl cis-4-[[3-(3-bromo-5-methylphenyl)-5-methoxy-4H-isoxazole-5-carbonyl]amino]tetrahydrofuran-2-carboxylate] | 90 | – | 80 | 90 | – | 80 | 80 to 100 | –
COC(=O)[C@H]1C[C@@H](NC(=O)C2(OC)CC(c3ccccc3)=NO2)CO1 (relative stereo) [I-14, methyl cis-4-[(5-methoxy-3-phenyl-4H-isoxazole-5-carbonyl)amino]tetrahydrofuran-2-carboxylate] | 80 | – | 80 | 80 | 90 | 80 | 80 to 100 | –
COC(=O)C1COCC1NC(=O)C1(OC)CC(c2cc(F)cc(F)c2)=NO1 (stereo not drawn) [I-27, methyl 4-[[3-(3,5-difluorophenyl)-5-methoxy-4H-isoxazole-5-carbonyl]amino]tetrahydrofuran-3-carboxylate] | – | – | 80 | 80 | 80 | 80 | 80 to 100 | 90
COC(=O)C1=C[C@H](NC(=O)C2(C)CC(c3cccc(F)c3)=NO2)CO1 (stereo partly drawn) [I-39, methyl (3S)-3-[[3-(3-fluorophenyl)-5-methyl-4H-isoxazole-5-carbonyl]amino]-2,3-dihydrofuran-5-carboxylate] | 100 | 100 | 90 | 90 | 90 | 80 | – | –
COC(=O)[C@@]1(OC)C[C@@H](NC(=O)C2(C)CC(c3cccc(F)c3)=NO2)CO1 (stereo partly drawn) [I-47, methyl (2R,4R)-4-[[3-(3-fluorophenyl)-5-methyl-4H-isoxazole-5-carbonyl]amino]-2-methoxytetrahydrofuran-2-carboxylate] | 100 | 100 | 80 | 90 | 90 | 80 | – | –
